Data from patent US10279022B2, “Peptides and combination of peptides for use in immunotherapy against various cancers” (immatics biotechnologies GmbH, priority 2015, dated 2019).

What was measured:
HLA-A*24 = experiment: MHC binding assay by UV-ligand exchange and beta2m ELISA (HLA-A*24); set-up: species or system human; conditions: peptide exchange yield, binding to HLA-A*24; UV-ligand exchange, beta2m ELISA
Source text: Candidate peptides for T cell based therapies according to the present invention were further tested for their MHC binding capacity (affinity). The individual peptide-MHC complexes were produced by UV-ligand exchange, where a UV-sensitive peptide is cleaved upon UV-irradiation, and exchanged with the peptide of interest as analyzed. Only peptide candidates that can effectively bind and stabilize the peptide-receptive MHC molecules prevent dissociation of the MHC complexes. To determine the yield of the exchange reaction, an ELISA was performed based on the detection of the light chain (β2m) of stabilized MHC complexes. The assay was performed as generally described in Rodenko et al. (Rodenko et al., 2006).
96 well MAXISorp plates (NUNC) were coated over night with 2 ug/ml streptavidin in PBS at room temperature, washed 4× and blocked for 1 h at 37° C. in 2% BSA containing blocking buffer. Refolded HLA-A*02:01/MLA-001 monomers served as standards, covering the range of 15-500 ng/ml. Peptide-MHC monomers of the UV-exchange reaction were diluted 100 fold in blocking buffer. Samples were incubated for 1 h at 37° C., washed four times, incubated with 2 ug/ml HRP conjugated anti-β2m for 1 h at 37° C., washed again and detected with TMB solution that is stopped with […]. Absorption was measured at 450 nm. Candidate peptides that show a high exchange yield (preferably higher than 50%, most preferred higher than 75%) are generally preferred for a generation and production of antibodies or fragments thereof, and/or T cell receptors or fragments thereof, as they show sufficient avidity to the MHC molecules and prevent dissociation of the MHC complexes.

CD8+ T cells = experiment: In vitro T-cell priming assay (aAPCs loaded with peptide/MHC and anti-CD28), pMHC multimer readout; assay type: cell-based, human; conditions: for Wells positive [%]: in vitro immunogenicity of HLA class I peptides, peptide specific pMHC multimer staining after three stimulation cycles; for in vitro immunogenicity: Wells: positive wells, HLA-A*02 and HLA-A*24 peptides, healthy donors
Source text: In order to obtain information regarding the immunogenicity of the TUMAPs of the present invention, the inventors performed investigations using an in vitro T-cell priming assay based on repeated stimulations of CD8+ T cells with artificial antigen presenting cells (aAPCs) loaded with peptide/MHC complexes and anti-CD28 antibody.
In order to perform in vitro stimulations by artificial antigen presenting cells loaded with peptide-MHC complex (pMHC) and anti-CD28 antibody, the inventors first isolated CD8+ T cells from fresh HLA-A*02 leukapheresis products via positive selection using CD8 microbeads (Miltenyi Biotec, Bergisch-Gladbach, Germany) of healthy donors obtained from the University clinics Mannheim, Germany, after informed consent.
PBMCs and isolated CD8+ lymphocytes were incubated in T-cell medium (TCM) until use consisting of RPMI-Glutamax (Invitrogen, Karlsruhe, Germany) supplemented with 10% heat inactivated human AB serum (PAN-Biotech, Aidenbach, Germany), 100 U/ml Penicillin/100 μg/ml Streptomycin (Cambrex, Cologne, Germany), 1 mM sodium pyruvate (CC Pro, Oberdorla, Germany), 20 μg/ml Gentamycin (Cambrex). 2.5 ng/ml IL7 (PromoCell, Heidelberg, Germany) and 10 U/ml IL-2 (Novartis Pharma, Nurnberg, Germany) were also added to the TCM at this step.
Generation of pMHC/anti-CD28 coated beads, T-cell stimulations and readout was performed in a highly defined in vitro system using four different pMHC molecules per stimulation condition and 8 different pMHC molecules per readout condition.
The purified co-stimulatory mouse IgG2a anti human CD28 Ab 9.3 (Jung et al., 1987) was chemically biotinylated using Sulfo-N-hydroxysuccinimidobiotin as recommended by the manufacturer (Perbio, Bonn, Germany). Beads used were 5.6 μm diameter streptavidin coated polystyrene particles (Bangs Laboratories, Illinois, USA).
pMHC used for positive and negative control stimulations were A*0201/MLA-001 (peptide […] (SEQ ID NO. 303) from modified Melan-A/MART-1) and A*0201/DDX5-001 ([…] from DDX5, SEQ ID NO. 304), respectively.
800.000 beads/200 μl were coated in 96-well plates in the presence of 4×12.5 ng different biotin-pMHC, washed and 600 ng biotin anti-CD28 were added subsequently in a volume of 200 μl. Stimulations were initiated in 96-well plates by co-incubating 1×10^6 CD8+ T cells with 2×10^5 washed coated beads in 200 μl TCM supplemented with 5 ng/ml IL-12 (PromoCell) for 3 days at 37° C. Half of the medium was then exchanged by fresh TCM supplemented with 80 U/ml IL-2 and incubating was continued for 4 days at 37° C. This stimulation cycle was performed for a total of three times. For the pMHC multimer readout using 8 different pMHC molecules per condition, a two-dimensional combinatorial coding approach was used as previously described (Andersen et al., 2012) with minor modifications encompassing coupling to 5 different fluorochromes. Finally, multimeric analyses were performed by staining the cells with Live/dead near IR dye (Invitrogen, Karlsruhe, Germany), CD8-FITC antibody clone SK1 (BD, Heidelberg, Germany) and fluorescent pMHC multimers. For analysis, a BD LSRII SORP cytometer equipped with appropriate lasers and filters was used. Peptide specific cells were calculated as percentage of total CD8+ cells. Evaluation of multimeric analysis was done using the FlowJo software (Tree Star, Oregon, USA). In vitro priming of specific multimer+CD8+ lymphocytes was detected by comparing to negative control stimulations.

Peptide exchange (HLA-A*24) | Substance | also measured
++++ (> = 75% = ++++) | 227 (IFLDYEAGTLSF; listed as Homo sapiens) [compound 227] | –
++++ (> = 75% = ++++) | 210 (IYTMIYRNL; listed as Homo sapiens) [compound 210] | –
++++ (> = 75% = ++++) | 202 (VYWDSAGAAHF; listed as Homo sapiens) [compound 202] | –
++++ (> = 75% = ++++) | 278 (RYISDQLFTNF; listed as Homo sapiens) [compound 278] | –
++++ (> = 75% = ++++) | 272 (QYLQDAYSF; listed as Homo sapiens) [compound 272] | –
– | 149 (ILNTHITEL; listed as Homo sapiens) [compound 149] | Wells positive [%] (CD8+ T cells): + (<20% = +)
++++ (> = 75% = ++++) | 217 (FFPPTRQMGLLF; listed as Homo sapiens) [compound 217] | –
– | 26 (ALQEELTEL; listed as Homo sapiens) [compound 26] | Wells positive [%] (CD8+ T cells): + (<20% = +)
++++ (> = 75% = ++++) | 184 (VFQNFPLLF; listed as Homo sapiens) [compound 184] | –
++++ (> = 75% = ++++) | 186 (IFPQFLYQF; listed as Homo sapiens) [compound 186] | –
– | 292 (GMMTAILGV; listed as Homo sapiens) [compound 292] | in vitro immunogenicity: Wells (CD8+ T cells): + (<20% = +)
– | 285 (HYPPVQVLF; listed as Homo sapiens) [compound 285] | Wells positive [%] (CD8+ T cells): + (<20% = +)
++++ (> = 75% = ++++) | 267 (KYMVYPQTF; listed as Homo sapiens) [compound 267] | –
– | 31 (TITETTVEV; listed as Homo sapiens) [compound 31] | Wells positive [%] (CD8+ T cells): + (<20% = +)
++++ (> = 75% = ++++) | 175 (YYEVHKELF; listed as Homo sapiens) [compound 175] | –
++++ (> = 75% = ++++) | 216 (QYSSVFKSL; listed as Homo sapiens) [compound 216] | –
– | 218 (YYKSTSSAF; listed as Homo sapiens) [compound 218] | Wells positive [%] (CD8+ T cells): + (<20% = +)
++++ (> = 75% = ++++) | 192 (SYALLTYMI; listed as Homo sapiens) [compound 192] | –
– | 23 (SLFSDEFKV; listed as Homo sapiens) [compound 23] | Wells positive [%] (CD8+ T cells): ++++ (> = 70% = ++++)
++++ (> = 75% = ++++) | 161 (IYLVSIPEL; listed as Homo sapiens) [compound 161] | –
++++ (> = 75% = ++++) | 282 (KFVDSTFYL; listed as Homo sapiens) [compound 282] | –
– | 197 (EYSLFPGQVVI; listed as Homo sapiens) [compound 197] | Wells positive [%] (CD8+ T cells): + (<20% = +)
++++ (> = 75% = ++++) | 211 (YYLEVGKTLI; listed as Homo sapiens) [compound 211] | –
++++ (> = 75% = ++++) | 173 (IYSWILDHF; listed as Homo sapiens) [compound 173] | –
++++ (> = 75% = ++++) | 177 (VYPWLGALL; listed as Homo sapiens) [compound 177] | –
– | 298 (RYLEGTSCI; listed as Homo sapiens) [compound 298] | in vitro immunogenicity: Wells (CD8+ T cells): + (<20% = +)
– | 141 (FLDKVLVAA; listed as Homo sapiens) [compound 141] | Wells positive [%] (CD8+ T cells): + (<20% = +)

Peptide exchange (HLA-A*24) | Substance | also measured
++++ (> = 75% = ++++) | 160 (VYTLDIPVL; listed as Homo sapiens) [compound 160] | –
– | 296 (TYVDSSHTI; listed as Homo sapiens) [compound 296] | in vitro immunogenicity: Wells (CD8+ T cells): + (<20% = +)
– | 230 (KLQNIMMLL; listed as Homo sapiens) [compound 230] | Wells positive [%] (CD8+ T cells): ++++ (> = 70% = ++++)
++++ (> = 75% = ++++) | 228 (KYTSWYVAL; listed as Homo sapiens) [compound 228] | –
++++ (> = 75% = ++++) | 195 (TYSVSFPMF; listed as Homo sapiens) [compound 195] | –
– | 90 (FLQDLEQRL; listed as Homo sapiens) [compound 90] | Wells positive [%] (CD8+ T cells): + (<20% = +)
++++ (> = 75% = ++++) | 271 (LYHDIFSRL; listed as Homo sapiens) [compound 271] | –
++++ (> = 75% = ++++) | 276 (VYGFQWRHF; listed as Homo sapiens) [compound 276] | –
++++ (> = 75% = ++++) | 166 (YYVESGKLF; listed as Homo sapiens) [compound 166] | –
– | 300 (AYVLRLETL; listed as Homo sapiens) [compound 300] | in vitro immunogenicity: Wells (CD8+ T cells): + (<20% = +)
– | 291 (KLDETGNSL; listed as Homo sapiens) [compound 291] | in vitro immunogenicity: Wells (CD8+ T cells): + (<20% = +)
– | 18 (ILLDLTDNRL; listed as Homo sapiens) [compound 18] | Wells positive [%] (CD8+ T cells): + (<20% = +)
++++ (> = 75% = ++++) | 193 (RFHPTPLLL; listed as Homo sapiens) [compound 193] | –
++++ (> = 75% = ++++) | 172 (TYTTVPRVAF; listed as Homo sapiens) [compound 172] | –
++++ (> = 75% = ++++) | 187 (TYLRDQHFL; listed as Homo sapiens) [compound 187] | –
– | 301 (AYKPGALTF; listed as Homo sapiens) [compound 301] | in vitro immunogenicity: Wells (CD8+ T cells): + (<20% = +)
– | 269 (YFIDSTNLKTHF; listed as Homo sapiens) [compound 269] | Wells positive [%] (CD8+ T cells): + (<20% = +)
++++ (> = 75% = ++++) | 280 (RYPDNLKHLYL; listed as Homo sapiens) [compound 280] | –
– | 5 (GIVAHIQEV; listed as Homo sapiens) [compound 5] | Wells positive [%] (CD8+ T cells): + (<20% = +)
– | 268 (QYLGQIQHI; listed as Homo sapiens) [compound 268] | Wells positive [%] (CD8+ T cells): + (<20% = +)
++++ (> = 75% = ++++) | 168 (KYQDILETI; listed as Homo sapiens) [compound 168] | –
++++ (> = 75% = ++++) | 289 (KYPVEWAKF; listed as Homo sapiens) [compound 289] | –
++++ (> = 75% = ++++) | 274 (AYLHSHALI; listed as Homo sapiens) [compound 274] | –
++++ (> = 75% = ++++) | 277 (VYQGHTALL; listed as Homo sapiens) [compound 277] | –
++++ (> = 75% = ++++) | 181 (LYLDIINLF; listed as Homo sapiens) [compound 181] | –
++++ (> = 75% = ++++) | 179 (MYDSYWRQF; listed as Homo sapiens) [compound 179] | –
